Common to all, as to assay: inhibition of tumour cell growth, NCI panel, 48 h
Test [1] deals with K-562 leukemia.
In test [2] the test system is RPMI-8226 leukemia.
In test [3] the test system is OVCAR-5 ovarian.
For test [4], the system named is UACC-62 melanoma.
The test system of test [5] is SNB-19 CNS.
Test [6] relates to A498 renal.
For test [7], the system named is SK-MEL-5 melanoma.
Test [8] has as its system MALME-3M melanoma.
Test [9] deals with SN12C renal.
Test [10] relates to HCT-15 colon.

Our source for the GI50 and TGI values is PubChem BioAssay (NCI).

Where “and” joins values, the source holds several entries; their conditions need not be identical. Identical values can stand only once.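 96-well plates; 48 h exposure; 5 concentrations. Endpoints by linear interpolation between flanking doses. Not reached: highest tested concentration assigned. Abbreviation: GI50, concentration required for 50% inhibition of growth. At the TGI there is no net growth.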

In the case of `COc1cc(C2c3cc4c(cc3[C@@H](Nc3ccc(C(=O)O)cc3)C3COC(=O)[C@H]23)OCO4)cc(OC)c1O` (stereo partly drawn), the GI50 in test [1] is 14.5 µM and 6.68 µM; in test [2] it was 5.7 µM and 2.71 µM; in test [3], 48.3 µM and > 17.5 µM. Besides, the TGI in test [1] is over 100 µM; in test [2], 30.2 µM and 6.54 µM; in test [3], over 100 µM; in test [4], 28.2 µM and > 17.5 µM; in test [5], over 100 µM; in [6], 68.8 µM and > 17.5 µM. Moreover, the TGI was 38.3 µM and > 17.5 µM in test [7]; 47.9 µM and > 17.5 µM in test [8]; 75.6 µM and > 17.5 µM in test [9]; 32.8 µM and > 17.5 µM in [10].

On to `CCN(CC)CCCCC1CCN(CC(=O)N2CC(C)C(=O)Nc3ccccc32)CC1` (stereo not drawn), for which the TGI in test [1], in [2], in test [3], in test [4], in [5] and in [6] was over 100 µM each time. The TGI in [7], in test [8], in [9] and in test [10] was over 100 µM in each case.

Take `c1ccc2c(c1)[I+]c1ccccc1-2`: the GI50 is 28.2 µM in [1]; 31.7 µM in test [2]; over 50 µM in test [3]; over 50 µM in test [4]; over 50 µM in test [5]; 27.7 µM in test [6]. Further, the GI50 in [7] was 24.3 µM; in test [8] it was over 50 µM; in test [9] it was over 50 µM; in [10], over 50 µM. Further, the TGI in [1], in test [2], in test [3], in [4], in test [5] and in test [6] was over 50 µM throughout. The TGI in test [7], in [8], in [9] and in test [10] was over 50 µM each time.

Regarding `COC(=O)c1c(-c2ccccc2)cc2c3cc(-c4ccccc4)c(C(=O)OC)n3c3ccccc3n12`, the TGI in test [1], in test [2], in test [3], in [4], in test [5] and in test [6] was over 100 µM each time. Further, the TGI in test [7], in [8], in [9] and in [10] was over 100 µM each time.

`NC(=O)c1c[se]c(C2OC(CO)C(O)C2O)n1` (stereo not drawn): the TGI in [1], in test [2], in test [3], in test [4], in [5] and in test [6] was over 100 µM in each case. In addition, the TGI in test [7], in [8], in test [9] and in test [10] was over 100 µM each time.

For the compound `COc1cc2c(cc1OCc1ccccc1)N=C[C@@H]1C/C(=C/C(=O)NCCCN3C(=O)c4cccc5cccc(c45)C3=O)CN1C2=O`, the GI50 is 0.424 µM in test [1]; 0.432 µM in [2]; 0.617 µM in test [3]; 0.599 µM in test [4]; 0.348 µM in test [5]; 1.45 µM in [6]. The GI50 was 1.04 µM in test [7], 0.272 µM in [8], 0.346 µM in [9] and 3.96 µM in [10]. Moreover, the TGI in test [1] was over 100 µM; in test [2], over 100 µM; in test [3], 14.4 µM; in test [4], 2.55 µM; in test [5], over 56.7 µM; in [6] it was 4.07 µM. Further, the TGI in test [7] was 3.33 µM; in test [8], 1.06 µM; in test [9] it was 2.4 µM; in test [10], over 100 µM.

As to `C=CCCCCCCCCCCCC1CCC(CC)N1` (stereo not drawn), the TGI in test [1] amounted to 28.1 µM; in test [2], 31.9 µM; in [3], 22.6 µM; in [4], 29.4 µM; in [5] it was 36.3 µM; in [6], 38.4 µM. Also, the TGI worked out at 25.5 µM in test [7], 31.4 µM in test [8], 24.3 µM in [9] and 12.9 µM in test [10].

Consider `O=C(O)C1CCc2ccc3ccccc3c2C1c1cccc2ccccc12` (stereo not drawn), for which the TGI was over 100 µM in test [1]; over 100 µM in test [2]; 37.9 µM in test [3]; 29.4 µM in test [4]; 34.2 µM in test [5]; 67.2 µM in test [6]. For the same compound, the TGI in [7] was found to be 30.1 µM; in [8], 50.4 µM; in test [9] it was 59.3 µM; in [10] it was 45.9 µM.

With `C=CCc1cc2cccc(OC)c2oc1=O`, the TGI in test [1], in [2], in [3], in [4], in test [5] and in test [6] was over 100 µM in each case. Also, the TGI in test [7], in test [8], in test [9] and in test [10] was over 100 µM in each case.

In the case of `CCCCNc1nc(NC(C)(C)C)nc(NC(C)(C)C)n1`, the GI50 in test [1] is 6.46 µM; in [2], 1.4 µM; in test [3], 15.2 µM; in test [4], 3.25 µM; in test [5] it was 17.6 µM; in test [6] it was 2.98 µM. Moreover, the GI50 in test [7] is 3.49 µM; in [8], 49.4 µM; in test [9], 3.1 µM; in [10] it was 2.97 µM. Moreover, the TGI in [1] is over 100 µM; in test [2], over 100 µM; in [3] it was over 100 µM; in test [4], over 100 µM; in test [5] it was over 100 µM; in test [6], 50.4 µM. In addition, the TGI in test [7] was 17.7 µM; in test [8], over 100 µM; in test [9], over 100 µM; in test [10], over 100 µM.
